Experimental data published in the NIST ThermoML archive (doi:10.1016/j.tca.2008.06.004).

Assays:
[1] = 101.33 kPa, Liquid; for mass density: Pycnometric method; for speed of sound: Linear variable-path acoustic interferometer
[2] = xn = mol fraction of the nth substance listed; settings: 101 kPa, Liquid; for excess molar volume: 298.15 K, Direct dilatometry; for speed of sound: 308.15 K, Linear variable-path acoustic interferometer
[3] = excess molar enthalpy (molar enthalpy of mixing); xn = mol fraction of the nth substance listed; settings: 308.15 K, 101 kPa, Liquid, Calvet calorimetry

Cc1ccccc1N [2-methylaniline]
[1]
Settings	mass density [kg/m3]	speed of sound [m/s]
298.15 K	994.28	–
308.15 K	–	1603

CCCCCCC [heptane]
[1]
Settings	mass density [kg/m3]	speed of sound [m/s]
298.15 K	679.49	–
308.15 K	–	1088

CCCCCC [hexane]
[1], 298.15 K
Settings	mass density [kg/m3]	speed of sound [m/s]
–	654.82	1079

Cc1ccccc1N [2-methylaniline] + CCCCCC
Settings	excess molar enthalpy [kcal/mol]	excess molar volume [m3/mol]	speed of sound [m/s]
[2], x1 = 0.0697	–	–	1056
[2], x1 = 0.0712	–	-4.8e-08	–
[2], x1 = 0.1172	–	–	1075
[2], x1 = 0.1767	–	-1.25e-07	–
[2], x1 = 0.1851	–	–	1105
[2], x1 = 0.2524	–	-1.84e-07	–
[2], x1 = 0.2657	–	–	1142
[2], x1 = 0.2933	–	-2.15e-07	–
[2], x1 = 0.3119	–	–	1165
[2], x1 = 0.3442	–	-2.52e-07	–
[2], x1 = 0.3707	–	–	1194
[2], x1 = 0.3801	–	-2.77e-07	–
[2], x1 = 0.4443	–	-3.15e-07	–
[2], x1 = 0.4478	–	–	1232
[2], x1 = 0.4903	–	-3.38e-07	–
[2], x1 = 0.5009	–	–	1259
[2], x1 = 0.5613	–	-3.63e-07	–
[2], x1 = 0.5787	–	–	1297
[2], x1 = 0.6363	–	-3.71e-07	–
[2], x1 = 0.6449	–	–	1329
[2], x1 = 0.6991	–	-3.61e-07	–
[2], x1 = 0.709	–	–	1359
[2], x1 = 0.7552	–	-3.36e-07	–
[2], x1 = 0.7673	–	–	1389
[2], x1 = 0.8345	–	-2.71e-07	–
[2], x1 = 0.8391	–	–	1433
[2], x1 = 0.9123	–	–	1501
[2], x1 = 0.9265	–	-1.46e-07	–
[3], x1 = 0.0678	0.0385	–	–
[3], x1 = 0.1317	0.084	–	–
[3], x1 = 0.1927	0.132	–	–
[3], x1 = 0.2505	0.179	–	–
[3], x1 = 0.3314	0.242	–	–
[3], x1 = 0.4015	0.29	–	–
[3], x1 = 0.4718	0.328	–	–
[3], x1 = 0.5317	0.35	–	–
[3], x1 = 0.5997	0.36	–	–
[3], x1 = 0.6532	0.355	–	–
[3], x1 = 0.7013	0.341	–	–
[3], x1 = 0.7717	0.301	–	–
[3], x1 = 0.8439	0.235	–	–
[3], x1 = 0.9164	0.142	–	–

C1CCCCC1 [cyclohexane]
[1], 298.15 K
Settings	mass density [kg/m3]	speed of sound [m/s]
–	773.94	1255

Cc1ccccc1N [2-methylaniline] + CCCCCCC
Settings	excess molar enthalpy [kcal/mol]	excess molar volume [m3/mol]	speed of sound [m/s]
[2], x1 = 0.0707	–	–	1102
[2], x1 = 0.0814	–	-4.8e-08	–
[2], x1 = 0.1227	–	–	1115
[2], x1 = 0.1663	–	-1.02e-07	–
[2], x1 = 0.1758	–	–	1129
[2], x1 = 0.2224	–	-1.37e-07	–
[2], x1 = 0.2378	–	–	1148
[2], x1 = 0.2812	–	-1.71e-07	–
[2], x1 = 0.3079	–	–	1172
[2], x1 = 0.3388	–	-1.99e-07	–
[2], x1 = 0.3508	–	–	1187
[2], x1 = 0.3991	–	-2.23e-07	–
[2], x1 = 0.4047	–	–	1208
[2], x1 = 0.4554	–	-2.38e-07	–
[2], x1 = 0.4679	–	–	1233
[2], x1 = 0.5218	–	-2.47e-07	–
[2], x1 = 0.547	–	–	1266
[2], x1 = 0.5804	–	-2.45e-07	–
[2], x1 = 0.6131	–	–	1296
[2], x1 = 0.6446	–	-2.33e-07	–
[2], x1 = 0.6884	–	–	1334
[2], x1 = 0.7112	–	-2.1e-07	–
[2], x1 = 0.7597	–	–	1373
[2], x1 = 0.7819	–	-1.73e-07	–
[2], x1 = 0.8208	–	–	1413
[2], x1 = 0.8503	–	-1.27e-07	–
[2], x1 = 0.9224	–	–	1501
[2], x1 = 0.9383	–	-6.7e-08	–
[3], x1 = 0.0734	0.0479	–	–
[3], x1 = 0.1457	0.0872	–	–
[3], x1 = 0.1968	0.112	–	–
[3], x1 = 0.2678	0.144	–	–
[3], x1 = 0.3109	0.162	–	–
[3], x1 = 0.3874	0.193	–	–
[3], x1 = 0.4467	0.215	–	–
[3], x1 = 0.5019	0.234	–	–
[3], x1 = 0.5876	0.256	–	–
[3], x1 = 0.6513	0.264	–	–
[3], x1 = 0.7016	0.263	–	–
[3], x1 = 0.7767	0.244	–	–
[3], x1 = 0.8312	0.215	–	–
[3], x1 = 0.9267	0.12	–	–

Cc1ccccc1N [2-methylaniline] + C1CCCCC1
Settings	excess molar enthalpy [kcal/mol]	excess molar volume [m3/mol]	speed of sound [m/s]
[2], x1 = 0.0663	–	–	1215
[2], x1 = 0.0768	–	2.41e-07	–
[2], x1 = 0.1293	–	–	1221
[2], x1 = 0.1415	–	3.87e-07	–
[2], x1 = 0.1758	–	–	1228
[2], x1 = 0.1925	–	4.7e-07	–
[2], x1 = 0.2355	–	–	1239
[2], x1 = 0.2442	–	5.29e-07	–
[2], x1 = 0.2901	–	5.62e-07	–
[2], x1 = 0.2902	–	–	1252
[2], x1 = 0.3335	–	–	1264
[2], x1 = 0.3415	–	5.81e-07	–
[2], x1 = 0.393	–	–	1282
[2], x1 = 0.3981	–	5.82e-07	–
[2], x1 = 0.4506	–	5.68e-07	–
[2], x1 = 0.4881	–	–	1315
[2], x1 = 0.5225	–	5.29e-07	–
[2], x1 = 0.556	–	–	1342
[2], x1 = 0.6103	–	4.57e-07	–
[2], x1 = 0.6453	–	–	1382
[2], x1 = 0.6875	–	3.79e-07	–
[2], x1 = 0.7117	–	–	1415
[2], x1 = 0.7513	–	3.07e-07	–
[2], x1 = 0.7986	–	–	1462
[2], x1 = 0.8224	–	2.22e-07	–
[2], x1 = 0.8479	–	–	1493
[2], x1 = 0.9026	–	–	1528
[2], x1 = 0.9119	–	1.11e-07	–
[3], x1 = 0.0527	0.0635	–	–
[3], x1 = 0.1017	0.121	–	–
[3], x1 = 0.1628	0.189	–	–
[3], x1 = 0.2349	0.26	–	–
[3], x1 = 0.2681	0.313	–	–
[3], x1 = 0.3614	0.354	–	–
[3], x1 = 0.4213	0.382	–	–
[3], x1 = 0.4907	0.399	–	–
[3], x1 = 0.5613	0.398	–	–
[3], x1 = 0.6121	0.387	–	–
[3], x1 = 0.6774	0.357	–	–
[3], x1 = 0.7643	0.294	–	–
[3], x1 = 0.8391	0.219	–	–
[3], x1 = 0.931	0.102	–	–
